Measurements published in patent US10143718B2, “Covalent inhibitors of dual oxidase 1 (DUOX 1)” (The University of Vermont and State Agricultural College, priority 2015, dated 2018).
Entries after “also recorded” stand apart in the source; their conditions may differ.

What was measured:
[1] = system: allergic inflammation and mucus metaplasia; assay: Acrolein exposure in a mouse model of allergic asthma; format: in vivo; conditions: non-toxic doses of acrolein
[2] = system: human bronchial epithelial cell line HBE1; assay: Allergen-induced cytokine secretion from HBE1 cells; format: cell-based; conditions: acrolein pretreatment
Experimental: (§1) Cells were pretreated with acrolein (ACR), cinnamaldehyde (CIN), curcumin (Curc) or sulforaphane (SFN) for 30 minutes and then stimulated with HDM for 2 hrs. IL-33 was measured in culture media.

[3] = target: T1, DUOX1 (Homo sapiens, UniProt Q9NRD9); assay: ARP labeling of DUOX1 in HBE1 cells (biotin tag, avidin purification, western blot); format: binding; conditions: 0, 10, or 30 micromolar for 30 minutes
T1 construct: endogenous in cells; host or cells: HBE1 (immortalized human bronchial epithelial cells)
T1 sequence (Q9NRD9 22-1551): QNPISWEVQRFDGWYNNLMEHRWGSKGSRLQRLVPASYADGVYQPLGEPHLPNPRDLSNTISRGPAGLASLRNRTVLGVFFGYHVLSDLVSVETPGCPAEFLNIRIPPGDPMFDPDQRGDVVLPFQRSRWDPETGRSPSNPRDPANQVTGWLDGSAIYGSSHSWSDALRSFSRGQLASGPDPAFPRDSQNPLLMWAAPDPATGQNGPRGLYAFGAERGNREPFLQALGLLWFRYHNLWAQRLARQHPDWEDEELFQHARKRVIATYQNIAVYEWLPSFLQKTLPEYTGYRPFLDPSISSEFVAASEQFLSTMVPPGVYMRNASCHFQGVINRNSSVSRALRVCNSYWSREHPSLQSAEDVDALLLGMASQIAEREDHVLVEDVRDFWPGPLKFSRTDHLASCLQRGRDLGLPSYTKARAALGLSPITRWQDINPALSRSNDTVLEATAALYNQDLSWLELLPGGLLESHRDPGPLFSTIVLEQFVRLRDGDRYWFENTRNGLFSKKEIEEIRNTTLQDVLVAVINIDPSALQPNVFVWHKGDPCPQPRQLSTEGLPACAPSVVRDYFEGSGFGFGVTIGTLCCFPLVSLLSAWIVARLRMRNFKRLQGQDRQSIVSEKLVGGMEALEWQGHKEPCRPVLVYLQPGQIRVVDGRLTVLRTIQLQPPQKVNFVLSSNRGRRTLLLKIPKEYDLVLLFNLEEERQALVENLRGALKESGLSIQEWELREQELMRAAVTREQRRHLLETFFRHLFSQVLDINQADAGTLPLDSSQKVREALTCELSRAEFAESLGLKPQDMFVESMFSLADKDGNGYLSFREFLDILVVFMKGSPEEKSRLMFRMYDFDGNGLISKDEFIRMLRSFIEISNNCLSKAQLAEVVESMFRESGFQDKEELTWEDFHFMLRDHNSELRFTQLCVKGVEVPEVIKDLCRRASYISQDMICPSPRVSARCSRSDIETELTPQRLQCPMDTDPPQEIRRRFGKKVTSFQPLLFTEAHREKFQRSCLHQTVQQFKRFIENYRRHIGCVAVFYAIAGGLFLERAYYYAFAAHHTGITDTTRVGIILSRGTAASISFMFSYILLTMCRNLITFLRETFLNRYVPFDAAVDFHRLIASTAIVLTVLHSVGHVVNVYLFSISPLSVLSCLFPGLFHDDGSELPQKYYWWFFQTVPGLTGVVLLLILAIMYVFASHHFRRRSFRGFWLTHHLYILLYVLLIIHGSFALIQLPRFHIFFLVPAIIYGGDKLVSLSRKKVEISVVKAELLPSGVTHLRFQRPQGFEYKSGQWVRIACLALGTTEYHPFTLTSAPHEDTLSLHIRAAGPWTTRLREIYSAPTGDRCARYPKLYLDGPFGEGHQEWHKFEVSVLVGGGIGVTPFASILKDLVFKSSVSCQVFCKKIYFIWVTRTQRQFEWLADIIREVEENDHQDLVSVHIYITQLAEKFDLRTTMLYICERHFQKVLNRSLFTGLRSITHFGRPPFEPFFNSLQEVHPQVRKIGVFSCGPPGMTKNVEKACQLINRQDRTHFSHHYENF
Description: Since these various electrophiles act primarily by targeting susceptible cysteine residues by Michael addition, it was believed that they may directly target DUOX1 protein on one of its accessible cysteine residues within its extracellular peroxidase homology (PHD) domain. […] Moreover, since the PHD domain is unique to DUOX and not present in other NADPH oxidase isoforms, this targeting approach would avoid non-selective actions on these other isoforms, a common problem with most NADPH oxidase inhibitors currently in development. To determine whether acrolein-mediated inhibition of DUOX1 activity (FIG. 4) was associated with direct targeting of DUOX1 protein, HBE1 cells were treated with 0, 10, or 30 micromolar acrolein for 30 minutes and derivatized cell lysates with aldehyde reactive probe (ARP; Pierce), which converts acrolein-induced Michael adducts to induce a biotin tag. Biotin-tagged proteins were subsequently purified by avidin chromatography and collected biotin-tagged proteins (eluates) were then analyzed by 10% SDS-PAGE and western blotting with an alpha-DUOX1 antibody. Whole cell lysate were analyzed accordingly as loading controls.

[4] = system: EGFR; assay: Allergen-induced EGFR tyrosine phosphorylation (EGFR activation); format: cell-based; conditions: non-toxic concentrations (3-30 micromolar)
Description: (§2) Based on identifying the involvement of Ca^2+-dependent DUOX1 activation and subsequent EGFR activation in allergen-induced IL-33 secretion from epithelial cells), the impact of acrolein exposure on allergen-induced Ca^2+ increases, extracellular H2O2 production (as a measure of DUOX1 activation) and EGFR tyrosine phosphorylation (as an indicator of EGFR activation) were studied.

[5] = target: T1, DUOX1; assay: Extracellular H2O2 production by HBE1 cells as a measure of DUOX1 activation (lactoperoxidase/tyrosine, HPLC); format: cell-based; conditions: for ATP-induced H2O2 production: electrophile 30 min prior to ATP stimulation, media collected after 10 min, 1-30 micromolar for food-derived electrophiles
Description: as §2
Preliminary studies of DUOX1 targeting by electrophiles. Acrolein (2,3-propenal) is a highly reactive electrophile and a well-recognized environmental pollutant. In this example, other electrophilic compounds with similar chemical reactivity were determined to be capable of inhibiting allergen-induced DUOX1 activation. These studies were performed using immortalized human bronchoepithelial cells (HBE1) which were cultured and exposed to different electrophiles at various doses for 30 min prior to cell stimulation with HDM or with ATP (a known activator of DUOX1). Conditioned culture media was collected 10 min after cell stimulation and mixed for 15 min with 10 micrograms/mL lactoperoxidase (Sigma) and 1 mM tyrosine (Gibco), which results in formation of fluorescent dityrosine product as a function of H2O2 concentration, and was analyzed by HPLC with fluorescence detection and compared with exogenous standards based on similarly treated stock solutions of H2O2. The resulting data were corrected for basal H2O2 production by unstimulated cells and ATP-dependent H2O2 production in the presence of electrophiles were expressed relative to that by ATP alone (which was set at 100%).

[6] = system: mouse tracheal epithelial cells; assay: Allergen-induced cytokine secretion from cultured mouse tracheal epithelial cells; format: cell-based; conditions: for HDM-induced IL-33 secretion (culture media): mouse tracheal epithelial cells, pretreated 30 minutes, then HDM for 2 hrs
Experimental: as §1

[7] = system: innate airway responses to HDM; assay: Acrolein inhalation, then allergen challenge; BAL cytokines analyzed; format: in vivo; conditions: mice; acrolein 5 ppm, 4 hrs; then HDM (50 micrograms) or Alternaria alternata challenge; BAL 1 hour later
Experimental: Electrophilic compounds can suppress allergic inflammation and innate allergen responses. […] Mice were exposed to acrolein (5 ppm; 4 hrs, and subsequently challenged with HDM (50 micrograms), and BAL cytokines were analyzed 1 hour later.

[8] = system: cellular GSH; assay: Cellular GSH depletion; format: cell-based; conditions: at concentrations inhibiting allergen-induced IL-33 secretion and H2O2 production
[9] = system: allergen-mediated Ca^2+ increases; assay: Allergen-induced Ca2+ increases in epithelial cells; format: cell-based; conditions: non-toxic concentrations (3-30 micromolar)
Description: as §2

With `C=CC=O` [acrolein, 2,3-propenal] the “allergic inflammation and mucus metaplasia” value [1] was “dramatically suppress allergic inflammation and mucus metaplasia”, the “allergen-induced secretion of IL-33, IL-1α or IL-17E” value [2] was “inhibits allergen-induced secretion of IL-33, IL-1α or IL-17E in a dose-dependent manner” and the “ARP labeling of DUOX1 (direct adduct with DUOX1)” value [3] was “induced dose-dependent ARP labeling of DUOX1”. For the same compound, the “allergen-induced EGFR autophosphorylation” value [4] was “markedly suppressed allergen-induced EGFR autophosphorylation”, the “ATP-induced H2O2 production” value [5] was “dose-dependent inhibition” and the “allergen-induced extracellular H2O2 production” value ([5]; non-toxic concentrations (3-30 micromolar)) was “markedly suppressed; also recorded: inhibits allergen-induced H2O2 production”. For the same compound, the “allergen-induced secretion of IL-33, IL-1α or IL-17E” value ([6]; cultured tracheal epithelial cells from mice, acrolein pretreatment) was “inhibits allergen-induced secretion of IL-33, IL-1α or IL-17E in a dose-dependent manner”, the “HDM-induced IL-33 secretion (culture media)” value (“HDM-induced IL-33 secretion” below) [6] was “inhibited HDM-induced IL-33 secretion” and the “production of IL-33, IL-1α or IL-17E (BAL cytokines)” value [7] was “dramatically minimized production of IL-33, IL-1α or IL-17E”. For the same compound, the “cellular GSH depletion” value [8] was “occurred in the absence of cellular GSH depletion” and the “allergen-mediated Ca^2+ increases” value [9] was “did not affect allergen-mediated Ca^2+ increases”.

`O=C/C=C/c1ccccc1` [cinnamaldehyde, (2E)-3-phenylprop-2-enal] was tested, and the “ATP-induced H2O2 production” value [5] was “capable of inhibiting ATP-mediated H2O2 production; also recorded: dose-dependent inhibition” and the “HDM-induced IL-33 secretion” value [6] was “inhibited HDM-induced IL-33 secretion”.

In the case of `COc1cc(/C=C/C(=O)CC(=O)/C=C/c2ccc(O)c(OC)c2)ccc1O` [curcumin, (1E,6E)-1,7-Bis(4-hydroxy-3-methoxyphenyl)-1,6-heptadiene-3,5-dione], the “ATP-induced H2O2 production” value [5] is reported as “capable of inhibiting ATP-mediated H2O2 production” and the “HDM-induced IL-33 secretion” value [6] is reported as “inhibited HDM-induced IL-33 secretion”.

In the case of `C=CS(=O)(=O)Oc1ccccc1` [phenyl vinyl sulfonate], the “ATP-induced H2O2 production” value [5] is reported as “dose-dependent inhibition”.

With `C=CS(=O)(=O)c1ccccc1` [phenyl vinyl sulfone] the “ATP-induced H2O2 production” value [5] was “Inhibitory effects”.

With `C[S+]([O-])CCCCN=C=S` (stereo not shown) [sulforaphane, 1-Isothiocyanato-4-methylsulfinylbutane] the “ATP-induced H2O2 production” value [5] was “capable of inhibiting ATP-mediated H2O2 production; also recorded: dose-dependent inhibition” and the “HDM-induced IL-33 secretion” value [6] was “inhibited HDM-induced IL-33 secretion”.
